Assay results taken from patent US20190328691A1, “ANTIBIOTIC THERAPY” (Boulos & Cooper Pharmaceuticals Pty Ltd, priority 2015, published 2019).

Columns and labels:
[1] = tested on: Staphylococcus aureus (BAA-1717); experiment: Checkerboard combination / MIC assay with S. aureus BAA-1717 (MRSA); format: cell-based; details: for Effect of individual antibiotic combinations: S. aureus BAA-1717
In short: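 CLSI broth microdilution checkerboard in CAMHB (5×10^5 CFU/mL, 2% DMSO final). Ramizol or Chlopam was tested in 11-point two-fold series against 7-point antibiotic titrations, starting at 4× MIC.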

[2] = tested on: Staphylococcus aureus (ATCC 29213); experiment: Checkerboard combination / MIC assay with S. aureus ATCC 29213; format: cell-based
In short: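 CLSI broth microdilution checkerboard in CAMHB, final inoculum 5×10^5 CFU/mL, 2% DMSO. Ramizol or Chlopam (11-point 2-fold) crossed with commercial antibiotics (7-point), each starting at 4× MIC; synergy assessed by FIC index (sum of MIC-in-combination/MIC-alone ratios; ≤0.5 synergy, >4 antagonism).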

[3] = tested on: MRSA strains; details: cited from earlier work

## CN[C@H](CC(C)C)C(=O)N[C@H]1C(=O)N[C@@H](CC(N)=O)C(=O)N[C@H]2C(=O)N[C@H]3C(=O)N[C@H](C(=O)N[C@H](C(=O)O)c4cc(O)cc(O)c4-c4cc3ccc4O)[C@H](O)c3ccc(c(Cl)c3)Oc3cc2cc(c3O[C@@H]2O[C@H](CO)[C@@H](O)[C@H](O)[C@H]2O[C@H]2C[C@](C)(N)[C@H](O)[C@H](C)O2)Oc2ccc(cc2Cl)[C@H]1O [Vancomycin]
[1]; Chlopam 0.001953 μg/mL + labelled antibiotic at MIC of same cell, S. aureus ATCC BAA-1717
  FICI of combination with Chlopam: 1.0
[1]; Chlopam 0.001953 μg/mL, S. aureus ATCC BAA-1717
  MIC of antibiotic in combination with Chlopam: 1 µg/mL
[1]; Chlopam 0.003906 μg/mL + labelled antibiotic at MIC of same cell, S. aureus ATCC BAA-1717
  FICI of combination with Chlopam: 1.0
[1]; Chlopam 0.003906 μg/mL, S. aureus ATCC BAA-1717
  MIC of antibiotic in combination with Chlopam: 1 µg/mL
[1]; Chlopam 0.0078125 μg/mL + labelled antibiotic at MIC of same cell, S. aureus ATCC BAA-1717
  FICI of combination with Chlopam: 1.0
[1]; Chlopam 0.0078125 μg/mL, S. aureus ATCC BAA-1717
  MIC of antibiotic in combination with Chlopam: 1 µg/mL
[1]; Chlopam 0.015625 μg/mL + labelled antibiotic at MIC of same cell, S. aureus ATCC BAA-1717
  FICI of combination with Chlopam: 1.0
[1]; Chlopam 0.015625 μg/mL, S. aureus ATCC BAA-1717
  MIC of antibiotic in combination with Chlopam: 1 µg/mL
[1]; Chlopam 0.5 μg/mL + labelled antibiotic at MIC of same line, S. aureus ATCC BAA-1717
  FICI of combination with Chlopam: 1.0
[1]; Chlopam 0.5 μg/mL, S. aureus ATCC BAA-1717
  MIC of antibiotic in combination with Chlopam: 0.031 µg/mL
[1]; Chlopam and Vancomycin: 0.001953 and 1, 0.003901 and 1, 0.0078125 and 1, 0.015625 and 1 μg/mL
  Effect of individual antibiotic combinations: additive effect
[1]; Ramizol 0.015625 μg/mL + labelled antibiotic at MIC of same cell, S. aureus ATCC BAA-1717
  FICI of combination with Ramizol: 1.0
[1]; Ramizol 0.015625 μg/mL, S. aureus ATCC BAA-1717
  MIC of antibiotic in combination with Ramizol: 1 µg/mL
[1]; Ramizol 0.03125 μg/mL + labelled antibiotic at MIC of same cell, S. aureus ATCC BAA-1717
  FICI of combination with Ramizol: 1.0
[1]; Ramizol 0.03125 μg/mL, S. aureus ATCC BAA-1717
  MIC of antibiotic in combination with Ramizol: 1 µg/mL
[1]; Ramizol 0.0625 μg/mL + labelled antibiotic at MIC of same cell, S. aureus ATCC BAA-1717
  FICI of combination with Ramizol: 1.0
[1]; Ramizol 0.0625 μg/mL, S. aureus ATCC BAA-1717
  MIC of antibiotic in combination with Ramizol: 1 µg/mL
[1]; Ramizol 0.125 μg/mL + labelled antibiotic at MIC of same line, S. aureus ATCC BAA-1717
  FICI of combination with Ramizol: 1.0
[1]; Ramizol 0.125 μg/mL, S. aureus ATCC BAA-1717
  MIC of antibiotic in combination with Ramizol: 1 µg/mL
[1]; Ramizol 4 μg/mL + labelled antibiotic at MIC of same cell, S. aureus ATCC BAA-1717
  FICI of combination with Ramizol: 1.0
[1]; Ramizol 4 μg/mL, S. aureus ATCC BAA-1717
  MIC of antibiotic in combination with Ramizol: 0.031 µg/mL
[1]; Ramizol and Vancomycin: 0.015625 and 1, 0.03125 and 1, 0.0625 and 1, 0.125 and 1, 4 and 0.031 μg/mL
  Effect of individual antibiotic combinations: additive effect
[1]; Staphylococcus aureus, ATCC BAA-1717 / BAA-1717, read-out: MIC of antibiotic alone
  MIC: 1 µg/mL
[1]; Table 7, checkerboard series with Ramizol, S. aureus ATCC BAA-1717
  MIC of antibiotic alone: 1 µg/mL
[1]; labelled antibiotic + Chlopam, mean of all pairwise combinations, S. aureus ATCC BAA-1717
  mean FICI of combination with Chlopam: 1.2
[1]; labelled antibiotic + Ramizol, mean of all pairwise combinations, S. aureus ATCC BAA-1717
  mean FICI of combination with Ramizol: 1.2
[2]; Chlopam 0.003906 μg/mL + labelled antibiotic at MIC of same cell, S. aureus ATCC 29213
  FICI of combination with Chlopam: 1.0
[2]; Chlopam 0.003906 μg/mL, S. aureus ATCC 29213
  MIC of antibiotic in combination with Chlopam: 1 µg/mL
[2]; Chlopam 0.0078125 μg/mL + labelled antibiotic at MIC of same cell, S. aureus ATCC 29213
  FICI of combination with Chlopam: 1.0
[2]; Chlopam 0.0078125 μg/mL, S. aureus ATCC 29213
  MIC of antibiotic in combination with Chlopam: 1 µg/mL
[2]; Chlopam 0.015625 μg/mL + labelled antibiotic at MIC of same cell, S. aureus ATCC 29213
  FICI of combination with Chlopam: 1.0
[2]; Chlopam 0.015625 μg/mL, S. aureus ATCC 29213
  MIC of antibiotic in combination with Chlopam: 1 µg/mL
[2]; Chlopam 0.125 μg/mL + labelled antibiotic at MIC of same line, S. aureus ATCC 29213
  FICI of combination with Chlopam: 0.8
[2]; Chlopam 0.125 μg/mL, S. aureus ATCC 29213
  MIC of antibiotic in combination with Chlopam: 0.5 µg/mL
[2]; Chlopam 0.25 μg/mL + labelled antibiotic at MIC of same cell, S. aureus ATCC 29213
  FICI of combination with Chlopam: 1.0
[2]; Chlopam 0.25 μg/mL, S. aureus ATCC 29213
  MIC of antibiotic in combination with Chlopam: 0.5 µg/mL
[2]; Chlopam and Vancomycin: 0.003901 and 1, 0.0078125 and 1, 0.015625 and 1, 0.125 and 0.5, 0.25 and 0.5 μg/mL, S. aureus ATCC 29213
  Effect of individual antibiotic combinations: additive effect
[2]; Ramizol 0.015625 μg/mL + labelled antibiotic at MIC of same cell, S. aureus ATCC 29213
  FICI of combination with Ramizol: 1.0
[2]; Ramizol 0.015625 μg/mL, S. aureus ATCC 29213
  MIC of antibiotic in combination with Ramizol: 1 µg/mL
[2]; Ramizol 0.03125 μg/mL + labelled antibiotic at MIC of same cell, S. aureus ATCC 29213
  FICI of combination with Ramizol: 1.0
[2]; Ramizol 0.03125 μg/mL, S. aureus ATCC 29213
  MIC of antibiotic in combination with Ramizol: 1 µg/mL
[2]; Ramizol 0.0625 μg/mL + labelled antibiotic at MIC of same cell, S. aureus ATCC 29213
  FICI of combination with Ramizol: 1.0
[2]; Ramizol 0.0625 μg/mL, S. aureus ATCC 29213
  MIC of antibiotic in combination with Ramizol: 1 µg/mL
[2]; Ramizol 0.125 μg/mL + labelled antibiotic at MIC of same cell, S. aureus ATCC 29213
  FICI of combination with Ramizol: 1.0
[2]; Ramizol 0.125 μg/mL, S. aureus ATCC 29213
  MIC of antibiotic in combination with Ramizol: 1 µg/mL
[2]; Ramizol and Vancomycin: 0.015625 and 1, 0.03125 and 1, 0.0625 and 1, 0.125 and 1 μg/mL, S. aureus ATCC 29213
  Effect of individual antibiotic combinations: additive effect
[2]; Staphylococcus aureus, ATCC29213, read-out: MIC of antibiotic alone
  MIC: 1 µg/mL
[2]; Table 7, checkerboard series with Ramizol, S. aureus ATCC 29213
  MIC of antibiotic alone: 1 µg/mL
[2]; labelled antibiotic + Chlopam, S. aureus ATCC 29213
  Effect of the combinations with Chlopam (by mean FICI): additive effect
[2]; labelled antibiotic + Chlopam, mean of all pairwise combinations, S. aureus ATCC 29213
  mean FICI of combination with Chlopam: 1.0
[2]; labelled antibiotic + Ramizol, mean of all pairwise combinations, S. aureus ATCC 29213
  mean FICI of combination with Ramizol: 1.2
[3]; MRSA strains fully resistant to vancomycin
  MIC: ≥ 32 µg/mL
[3]; MRSA strains with decreased susceptibility to vancomycin
  minimum inhibitory concentration [MIC]: 4 to 8 µg/mL
